The numbers were not newly measured in patent US8569328B1, “Compositions and methods comprising tilidine or related compounds and dextromethorphan” (Antecip Bioventures II LLC, priority 2011, dated 2013), which cites them from elsewhere.

The conditions of series [1]: three large multicenter randomized studies; dextromethorphan added to morphine.
Series [2] concerns the target cytochrome P450 isozyme CYP2D6 (Homo sapiens, UniProt P10635). Particulars: in vitro.

Sequence of cytochrome P450 isozyme CYP2D6 (P10635 whole entry): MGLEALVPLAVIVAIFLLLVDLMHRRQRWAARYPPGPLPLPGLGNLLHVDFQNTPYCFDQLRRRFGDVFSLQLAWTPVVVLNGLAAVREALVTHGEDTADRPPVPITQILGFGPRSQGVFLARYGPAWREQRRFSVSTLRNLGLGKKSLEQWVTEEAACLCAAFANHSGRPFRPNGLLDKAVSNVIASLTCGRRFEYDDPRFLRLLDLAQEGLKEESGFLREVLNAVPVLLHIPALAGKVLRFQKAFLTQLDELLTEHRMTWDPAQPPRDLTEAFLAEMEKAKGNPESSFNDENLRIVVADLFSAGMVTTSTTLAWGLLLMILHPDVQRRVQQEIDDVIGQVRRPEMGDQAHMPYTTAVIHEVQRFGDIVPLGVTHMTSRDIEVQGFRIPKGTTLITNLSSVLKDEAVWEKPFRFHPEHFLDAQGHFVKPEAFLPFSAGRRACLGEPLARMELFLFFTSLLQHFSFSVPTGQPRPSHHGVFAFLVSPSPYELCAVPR

On to `COc1ccc2c(c1)[C@]13CCCC[C@@H]1[C@H](C2)N(C)CC3` [dextromethorphan], for which the “benefit from the addition of dextromethorphan to morphine (enhancement of opioid analgesia)” value in series [1] is on record as “failed to show any benefit”.

`CCOC(=O)C1(c2ccccc2)CCC=CC1N(C)C` (stereo not drawn) [tilidine]: the “inhibition of cytochrome P450 isozymes including CYP2D6” value in series [2] was “inhibit”.

Regarding nortilidine, the “inhibition of cytochrome P450 isozymes including CYP2D6” value in series [2] is recorded as “inhibit”.
